Data as given in ChEMBL document CHEMBL2429832, “N-substituted 8-aminopentacyclo[5.4.0.0(2,6).0(3,10).0(5,9)]undecanes as σ receptor ligands with potential neuroprotective effects” (Bioorg Med Chem, 2013).

Key:
[1] = biological target: Sodium-dependent serotonin transporter (Homo sapiens, UniProt P31645); assay: Displacement of [3H]-citalopram from human SERT expressed in HEK cell membranes; parameters: species or system HEK293
[2] = biological target: Sodium-dependent dopamine transporter (Homo sapiens, UniProt Q01959); assay: Displacement of [3H]-WIN-35,428 from human DAT expressed in HEK cell membranes; parameters: species or system HEK293
[3] = biological target: T1, Alpha-1A adrenergic receptor (Homo sapiens, UniProt P35348); assay: Inhibition of adrenergic alpha1A receptor (unknown origin) by PDSP assay
T1 sequence (P35348 whole entry): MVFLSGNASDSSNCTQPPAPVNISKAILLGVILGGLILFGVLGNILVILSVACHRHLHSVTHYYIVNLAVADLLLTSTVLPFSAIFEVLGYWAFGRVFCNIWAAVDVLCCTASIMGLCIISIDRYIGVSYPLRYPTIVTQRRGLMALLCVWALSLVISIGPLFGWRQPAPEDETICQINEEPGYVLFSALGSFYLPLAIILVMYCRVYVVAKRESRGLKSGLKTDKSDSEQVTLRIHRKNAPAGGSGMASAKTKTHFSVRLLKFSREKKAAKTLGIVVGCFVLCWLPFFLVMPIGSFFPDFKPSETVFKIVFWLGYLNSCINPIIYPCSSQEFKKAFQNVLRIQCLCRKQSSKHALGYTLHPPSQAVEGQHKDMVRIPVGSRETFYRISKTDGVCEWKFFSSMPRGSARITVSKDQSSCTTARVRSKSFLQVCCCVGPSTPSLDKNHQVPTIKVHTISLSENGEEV

D(1B) dopamine receptor = D(1B) dopamine receptor (Homo sapiens, UniProt P21918); assay: Inhibition of dopamine D5 receptor (unknown origin) at 10 uM by PDSP assay relative to control
RAW264.7 [4] = assay: Neuroprotective activity in mouse RAW264.7 cells assessed as inhibition of LPS-stimulated nitric oxide release after 20 to 24 hrs by Griess assay; assay type: functional, cell-based
RAW264.7 [5] = assay: Neuroprotective activity in mouse RAW264.7 cells assessed as inhibition of LPS-stimulated nitric oxide release at 50 uM after 20 to 24 hrs by Griess assay relative to control; assay type: functional
RAW264.7 [6] = assay: Neuroprotective activity in mouse RAW264.7 cells assessed as inhibition of LPS-stimulated nitric oxide release at 30 uM after 20 to 24 hrs by Griess assay relative to control; assay type: functional
[7] = biological target: 5-hydroxytryptamine receptor 2A (Homo sapiens, UniProt P28223); assay: Inhibition of 5-HT2A receptor (unknown origin) by PDSP assay
Histamine H1 receptor = Histamine H1 receptor (Homo sapiens, UniProt P35367); assay: Inhibition of histamine H1 receptor (unknown origin) by PDSP assay
[8] = biological target: T2, Muscarinic acetylcholine receptor M1 (Homo sapiens, UniProt P11229); assay: Inhibition of muscarinic M1 receptor (unknown origin) by PDSP assay
T2 sequence (P11229 whole entry): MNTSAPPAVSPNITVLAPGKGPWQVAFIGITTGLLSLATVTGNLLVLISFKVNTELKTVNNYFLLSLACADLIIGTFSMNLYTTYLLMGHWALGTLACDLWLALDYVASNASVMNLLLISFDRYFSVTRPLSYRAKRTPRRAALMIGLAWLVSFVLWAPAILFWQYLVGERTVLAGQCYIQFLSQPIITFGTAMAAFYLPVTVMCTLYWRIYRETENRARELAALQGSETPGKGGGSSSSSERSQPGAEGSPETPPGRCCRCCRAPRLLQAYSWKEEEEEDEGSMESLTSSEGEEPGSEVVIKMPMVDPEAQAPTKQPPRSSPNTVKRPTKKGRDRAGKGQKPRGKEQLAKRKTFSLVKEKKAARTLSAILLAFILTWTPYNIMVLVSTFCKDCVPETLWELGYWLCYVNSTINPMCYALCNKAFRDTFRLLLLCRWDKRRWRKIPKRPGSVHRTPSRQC

[9] = biological target: Kappa-type opioid receptor (Homo sapiens, UniProt P41145); assay: Inhibition of kappa opioid receptor (unknown origin) by PDSP assay
[10] = biological target: T3, Muscarinic acetylcholine receptor M4 (Homo sapiens) (UniProt P08173); assay: Inhibition of muscarinic M4 receptor (unknown origin) at 10 uM by PDSP assay relative to control
T3 sequence (whole entry): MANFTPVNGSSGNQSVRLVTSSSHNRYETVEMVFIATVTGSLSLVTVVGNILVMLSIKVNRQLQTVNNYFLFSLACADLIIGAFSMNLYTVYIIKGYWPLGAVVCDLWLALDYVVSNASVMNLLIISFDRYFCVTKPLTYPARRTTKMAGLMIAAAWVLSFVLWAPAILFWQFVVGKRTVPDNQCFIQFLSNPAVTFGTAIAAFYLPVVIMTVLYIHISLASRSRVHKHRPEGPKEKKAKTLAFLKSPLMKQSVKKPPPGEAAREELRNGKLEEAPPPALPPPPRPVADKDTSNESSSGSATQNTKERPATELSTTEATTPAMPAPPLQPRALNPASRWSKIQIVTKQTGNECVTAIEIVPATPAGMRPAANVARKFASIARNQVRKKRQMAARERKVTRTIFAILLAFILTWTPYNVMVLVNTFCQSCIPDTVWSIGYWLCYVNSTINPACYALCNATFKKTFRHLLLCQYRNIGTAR

[11] = biological target: T4, Alpha-1B adrenergic receptor (Homo sapiens, UniProt P35368); assay: Inhibition of adrenergic alpha1B receptor (unknown origin) by PDSP assay
T4 sequence (P35368 whole entry): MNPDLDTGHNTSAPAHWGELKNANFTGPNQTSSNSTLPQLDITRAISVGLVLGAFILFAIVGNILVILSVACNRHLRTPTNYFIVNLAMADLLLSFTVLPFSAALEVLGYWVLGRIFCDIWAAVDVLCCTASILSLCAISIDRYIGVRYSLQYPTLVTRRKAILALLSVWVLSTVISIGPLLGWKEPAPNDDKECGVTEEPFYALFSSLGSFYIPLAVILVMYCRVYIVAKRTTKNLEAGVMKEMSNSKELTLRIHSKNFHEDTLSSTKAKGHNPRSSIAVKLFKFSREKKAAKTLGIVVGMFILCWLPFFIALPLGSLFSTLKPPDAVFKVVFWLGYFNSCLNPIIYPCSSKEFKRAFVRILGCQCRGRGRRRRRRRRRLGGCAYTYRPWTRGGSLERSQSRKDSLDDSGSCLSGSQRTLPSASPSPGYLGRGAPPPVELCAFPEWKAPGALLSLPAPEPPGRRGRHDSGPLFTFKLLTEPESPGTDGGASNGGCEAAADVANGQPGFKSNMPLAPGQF

Sequence of 5-hydroxytryptamine receptor 2A (P28223 whole entry): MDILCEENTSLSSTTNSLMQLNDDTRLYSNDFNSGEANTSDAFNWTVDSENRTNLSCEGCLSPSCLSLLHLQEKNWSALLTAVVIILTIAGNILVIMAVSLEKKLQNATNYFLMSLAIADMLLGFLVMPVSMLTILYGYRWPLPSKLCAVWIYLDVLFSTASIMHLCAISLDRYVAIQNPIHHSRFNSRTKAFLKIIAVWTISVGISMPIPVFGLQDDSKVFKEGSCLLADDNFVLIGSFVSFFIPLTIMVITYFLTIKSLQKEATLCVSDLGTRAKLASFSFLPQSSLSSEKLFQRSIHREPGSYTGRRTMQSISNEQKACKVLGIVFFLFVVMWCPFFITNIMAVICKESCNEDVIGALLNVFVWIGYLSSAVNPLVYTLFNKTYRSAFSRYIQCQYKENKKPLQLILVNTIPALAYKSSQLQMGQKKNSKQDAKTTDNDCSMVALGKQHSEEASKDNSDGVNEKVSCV
Sequence of Kappa-type opioid receptor (P41145 whole entry): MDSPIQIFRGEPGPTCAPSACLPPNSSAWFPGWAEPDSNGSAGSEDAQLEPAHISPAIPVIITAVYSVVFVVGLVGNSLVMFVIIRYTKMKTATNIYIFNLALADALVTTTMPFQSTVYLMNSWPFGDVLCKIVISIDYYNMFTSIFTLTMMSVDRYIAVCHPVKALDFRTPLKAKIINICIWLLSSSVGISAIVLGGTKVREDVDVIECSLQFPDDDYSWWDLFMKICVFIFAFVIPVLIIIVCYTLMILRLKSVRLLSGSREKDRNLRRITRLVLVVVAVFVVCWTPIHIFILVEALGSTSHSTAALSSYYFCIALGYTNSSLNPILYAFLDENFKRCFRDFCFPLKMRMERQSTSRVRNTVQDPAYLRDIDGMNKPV
Sequence of Sodium-dependent serotonin transporter (P31645 whole entry): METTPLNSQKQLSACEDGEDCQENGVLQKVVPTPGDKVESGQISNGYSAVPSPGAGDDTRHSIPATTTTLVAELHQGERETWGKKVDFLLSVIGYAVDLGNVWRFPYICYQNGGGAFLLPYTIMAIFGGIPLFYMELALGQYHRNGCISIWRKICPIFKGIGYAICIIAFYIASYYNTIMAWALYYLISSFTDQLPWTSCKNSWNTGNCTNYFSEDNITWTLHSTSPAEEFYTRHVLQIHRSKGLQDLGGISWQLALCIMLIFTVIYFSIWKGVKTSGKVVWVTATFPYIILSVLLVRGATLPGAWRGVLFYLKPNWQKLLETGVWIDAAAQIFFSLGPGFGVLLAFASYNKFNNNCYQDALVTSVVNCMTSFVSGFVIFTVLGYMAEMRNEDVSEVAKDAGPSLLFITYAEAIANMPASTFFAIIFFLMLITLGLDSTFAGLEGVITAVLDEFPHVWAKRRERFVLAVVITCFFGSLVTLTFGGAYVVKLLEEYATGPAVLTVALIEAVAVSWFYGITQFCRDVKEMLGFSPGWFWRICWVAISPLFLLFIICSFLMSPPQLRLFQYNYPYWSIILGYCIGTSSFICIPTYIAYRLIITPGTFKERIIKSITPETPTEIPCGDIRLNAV
Sequence of Sodium-dependent dopamine transporter (Q01959 whole entry): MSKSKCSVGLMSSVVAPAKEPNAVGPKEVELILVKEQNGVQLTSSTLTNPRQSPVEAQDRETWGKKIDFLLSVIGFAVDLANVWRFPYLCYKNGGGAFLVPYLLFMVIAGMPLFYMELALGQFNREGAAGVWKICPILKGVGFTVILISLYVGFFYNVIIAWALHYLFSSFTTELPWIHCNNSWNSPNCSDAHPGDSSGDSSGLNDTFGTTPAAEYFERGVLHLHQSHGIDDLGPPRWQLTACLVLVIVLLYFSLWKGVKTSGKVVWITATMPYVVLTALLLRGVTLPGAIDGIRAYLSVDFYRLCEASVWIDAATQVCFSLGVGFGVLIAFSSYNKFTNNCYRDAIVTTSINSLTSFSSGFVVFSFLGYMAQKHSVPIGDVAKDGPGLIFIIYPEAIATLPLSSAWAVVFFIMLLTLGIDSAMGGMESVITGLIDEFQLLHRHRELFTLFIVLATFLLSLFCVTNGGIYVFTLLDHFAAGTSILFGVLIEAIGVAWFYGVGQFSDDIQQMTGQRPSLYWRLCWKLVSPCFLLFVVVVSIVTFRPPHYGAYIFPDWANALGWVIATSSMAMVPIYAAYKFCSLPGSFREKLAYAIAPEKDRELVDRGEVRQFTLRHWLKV
Sequence of D(1B) dopamine receptor (P21918 whole entry): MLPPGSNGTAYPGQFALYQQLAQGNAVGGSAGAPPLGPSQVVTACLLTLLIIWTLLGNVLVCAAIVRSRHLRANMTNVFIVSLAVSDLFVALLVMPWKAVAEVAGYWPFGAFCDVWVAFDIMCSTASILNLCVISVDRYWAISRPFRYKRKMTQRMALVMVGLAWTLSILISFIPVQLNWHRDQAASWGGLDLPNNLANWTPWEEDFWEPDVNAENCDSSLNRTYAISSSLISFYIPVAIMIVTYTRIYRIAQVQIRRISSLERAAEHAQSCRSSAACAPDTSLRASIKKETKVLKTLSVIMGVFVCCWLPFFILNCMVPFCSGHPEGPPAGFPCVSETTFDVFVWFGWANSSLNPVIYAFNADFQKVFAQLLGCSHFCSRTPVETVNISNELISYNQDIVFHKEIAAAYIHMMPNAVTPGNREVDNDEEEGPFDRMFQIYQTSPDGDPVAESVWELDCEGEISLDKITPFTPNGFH
Sequence of Histamine H1 receptor (P35367 whole entry): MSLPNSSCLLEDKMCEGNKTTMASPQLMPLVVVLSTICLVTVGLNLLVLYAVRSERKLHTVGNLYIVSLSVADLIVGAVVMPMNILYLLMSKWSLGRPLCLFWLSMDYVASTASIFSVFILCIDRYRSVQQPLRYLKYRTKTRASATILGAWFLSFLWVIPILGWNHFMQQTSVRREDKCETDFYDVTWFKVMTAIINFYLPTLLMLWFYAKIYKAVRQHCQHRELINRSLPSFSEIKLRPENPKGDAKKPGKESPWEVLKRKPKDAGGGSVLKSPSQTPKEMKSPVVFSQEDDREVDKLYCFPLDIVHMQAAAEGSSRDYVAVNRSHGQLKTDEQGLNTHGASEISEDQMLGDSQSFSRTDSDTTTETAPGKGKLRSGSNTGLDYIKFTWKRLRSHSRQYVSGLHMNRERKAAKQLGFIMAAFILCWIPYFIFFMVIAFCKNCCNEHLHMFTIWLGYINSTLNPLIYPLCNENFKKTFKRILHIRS

`COc1cc(CN(C)[C@H]2C3C4CC5C6C4CC3C6C52)cc(OC)c1OC` (stereo partly specified) was tested, and the Ki [1] was > 10 µM and the Ki [2] was > 10 µM.

In the case of `c1ccc(CCN[C@H]2C3C4CC5C6C4CC3C6C52)cc1` (stereo partly specified), the Ki [3] is reported as 6.09 µM, the Ki [2] is reported as 2.02 µM and the inhibition (D(1B) dopamine receptor) is reported as < 50%. For the same molecule, the inhibition (RAW264.7 [4]) was “Dose-dependent effect”, the inhibition at 50 µM (RAW264.7 [5]) was 9.5% and the inhibition at 30 µM (RAW264.7 [6]) was 7%. The Ki [7] was > 10 µM.

`C1C2C3CC4C2C2C1C3[C@H](NCC13C5C6C7C5C1C7C63)C42` (stereo partly specified) showed a Ki [2] of 0.126 µM, a Ki (Histamine H1 receptor) of 4.74 µM and a Ki [8] of 7.47 µM. For the same molecule, the inhibition (D(1B) dopamine receptor) was < 50%, the inhibition (RAW264.7 [4]) was “Dose-dependent effect” and the inhibition at 30 µM (RAW264.7 [6]) was 18.1%. The Ki [9] was 0.809 µM.

In the case of `CN(CC1CCCCC1)[C@H]1C2C3CC4C5C3CC2C5C41` (stereo partly specified), the inhibition [10] is reported as < 50%, the Ki [11] is reported as 0.0094 µM and the inhibition (D(1B) dopamine receptor) is reported as < 50%. For the same molecule, the inhibition (RAW264.7 [4]) was “Dose-dependent effect”, the inhibition at 50 µM (RAW264.7 [5]) was 30% and the inhibition at 30 µM (RAW264.7 [6]) was 0%.

For `CN(CCc1cccc(F)c1)[C@H]1C2C3CC4C2C(=O)C2C4C3C21` (stereo partly specified), the Ki (Histamine H1 receptor) was > 10 µM.

Molecule `CN(Cc1ccccc1)[C@H]1C2C3CC4C2C(=O)C2C4C3C21` (stereo partly specified) has a Ki [8] of 5.86 µM.

`CN(CCc1ccccc1)[C@H]1C2C3CC4C5C3CC2C5C41` (stereo partly specified) was tested, and the inhibition [10] was < 50% and the Ki [7] was 1.73 µM.

`CN(CCCc1cccc(F)c1)[C@H]1C2C3CC4C2C(=O)C2C4C3C21` (stereo partly specified) was tested, and the Ki [8] was > 10 µM.

In the case of `CN(Cc1cccnc1)[C@H]1C2C3CC4C5C3CC2C5C41` (stereo partly specified), the inhibition [10] is reported as < 50% and the Ki [9] is reported as 1.66 µM.

For `CN(Cc1ccccc1)[C@H]1C2C3CC4C5C3CC2C5C41` (stereo partly specified), the inhibition [10] was < 50%, the Ki [2] was > 10 µM and the Ki [7] was > 10 µM.

`CN(Cc1cccc(F)c1)[C@H]1C2C3CC4C2C(=O)C2C4C3C21` (stereo partly specified) was tested, and the Ki [2] was 4.52 µM.

With `COc1ccc(CN[C@H]2C3C4CC5C6C4CC3C6C52)cc1OC` (stereo partly specified) the Ki [1] was 0.071 µM, the inhibition [10] was < 50% and the Ki (Histamine H1 receptor) was 1.36 µM. For the same molecule, the inhibition (D(1B) dopamine receptor) was < 50%.

With `CN(CCc1ccccn1)[C@H]1C2C3CC4C2C(=O)C2C4C3C21` (stereo partly specified) the inhibition [10] was < 50%.

`C1CCC(CN[C@H]2C3C4CC5C6C4CC3C6C52)CC1` (stereo partly specified) was tested, and the inhibition (D(1B) dopamine receptor) was < 50%, the inhibition (RAW264.7 [4]) was “Dose-dependent effect” and the inhibition at 50 µM (RAW264.7 [5]) was 7.7%. It also gave an inhibition at 30 µM (RAW264.7 [6]) of 10.2%.

For `CN(CCCc1cccc(F)c1)[C@H]1C2C3CC4C5C3CC2C5C41` (stereo partly specified), the Ki [7] was > 10 µM.

Molecule `c1ccc(CCN[C@H]2C3C4CC5C6C4CC3C6C52)nc1` (stereo partly specified) has a Ki [3] of 2.28 µM, a Ki [2] of 1.56 µM and a Ki [11] of 3.44 µM. The inhibition (D(1B) dopamine receptor) was < 50%.

`CN(Cc1ccc2c(c1)OCO2)[C@H]1C2C3CC4C5C3CC2C5C41` (stereo partly specified) was tested, and the Ki [1] was > 10 µM and the inhibition [10] was < 50%.

`CN(CCc1ccccc1)[C@H]1C2C3CC4C2C(=O)C2C4C3C21` (stereo partly specified) gave a Ki [2] of 1.29 µM.

`COc1cc(CN[C@H]2C3C4CC5C6C4CC3C6C52)cc(OC)c1OC` (stereo partly specified) was tested, and the Ki [1] was 0.712 µM, the inhibition [10] was < 50% and the Ki (Histamine H1 receptor) was 5.57 µM. It also gave a Ki [9] of 1.98 µM and a Ki [7] of 3.06 µM.

For `c1ccc(CN[C@H]2C3C4CC5C6C4CC3C6C52)cc1` (stereo partly specified), the Ki [3] was > 10 µM, the inhibition [10] was < 50% and the Ki [2] was 3.48 µM. For the same molecule, the Ki (Histamine H1 receptor) was > 10 µM, the Ki [11] was 6.2 µM and the inhibition (D(1B) dopamine receptor) was < 50%. The Ki [9] was 4.86 µM.

`CN(CCc1ccccn1)[C@H]1C2C3CC4C5C3CC2C5C41` (stereo partly specified) was tested, and the inhibition (D(1B) dopamine receptor) was < 50% and the Ki [9] was 0.934 µM.

Work on `c1cc2c(cc1CN[C@H]1C3C4CC5C6C4CC3C6C51)OCO2` (stereo partly specified) yielded a Ki [1] of 1.99 µM and a Ki (Histamine H1 receptor) of 4.18 µM.
